# US8436031B2 (priority 2004, dated 2013)
# Target: MarA (Escherichia coli, UniProt P0ACH5)
# Experiment: Selective marker (ccdB) under MarA-activated promoter; cell survival under MarA expression (Example 2)
# Assay type: cell-based
# Parameters: key: *: good inhibition of MarA; **: very good inhibition of MarA
# Conditions: inhibition of MarA; cell survival under conditions of MarA expression
# Excerpt: In this example, the expression of a selective marker (e.g., ccdB) is put under the direct control of a promoter activated by MarA (e.g., inaA, galT, or micF). In the absence of MarA, the expression of the selective marker is silent and cells survive. Synthesis of MarA from an inducible plasmid in a bacterial or yeast cell leads to the activation of the inaA promoter, expression of ccdB, and subsequently results in cell death. Compounds that inhibit MarA are those that permit cell survival under conditions of MarA expression. In Table 4, * indicates good inhibition of MarA and ** indicates very good inhibition of MarA.
# MarA, sequence (P0ACH5 whole entry, looked up): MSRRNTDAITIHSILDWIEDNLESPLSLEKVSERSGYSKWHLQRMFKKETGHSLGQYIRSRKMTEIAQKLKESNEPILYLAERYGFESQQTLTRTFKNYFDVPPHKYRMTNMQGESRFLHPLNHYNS
row,Compound,MarA inhibition score (cell survival)
1,"CSc1nnc2c(n1)OC(c1ccc(I)o1)Nc1ccccc1-2 (centres unmarked) [A, 6-(5-Iodo-furan-2-yl)-3-methylsulfanyl-6,7-dihydro-5-oxa-1,2,4,7-tetraaza-dibenzo[a,c]cycloheptene]",**
2,"N#Cc1c(-c2ccc3c(c2)OCO3)c(C#N)c2nc3ccccc3n2c1N [AB, 1-Amino-3-benzo[1,3]dioxol-5-yl-benzo[4,5]imidazo[1,2-a]pyridine-2,4-dicarbonitrile]",**
3,"COC(=O)c1ccccc1NC(=O)CSc1nnc(-c2ccco2)n1-c1ccccc1 [AC, 2-[2-(5-Furan-2-yl-4-phenyl-4H-[1,2,4]triazol-3-ylsulfanyl)-acetylamino]-benzoic acid methyl ester]",*
4,"CSc1cccc(NC(=O)CSc2nnc(-c3ccc4nonc4c3)n2C)c1 [AE, 2-(5-Benzo[1,2,5]oxadiazol-5-yl-4-methyl-4H-[1,2,4]triazol-3-ylsulfanyl)-N-(3-methylsulfanyl-phenyl)-acetamide]",*
5,"O=C1C(=C2NC(c3ccccn3)C3C(=O)N(c4ccccc4)C(=O)C23)C(=O)c2ccccc21 (centres unmarked) [AF, 4-(1,3-Dioxo-indan-2-ylidene)-2-phenyl-6-pyridin-2-yl-tetrahydro-pyrrolo[3,4-c]pyrrole-1,3-dione]",**
6,"O=[N+]([O-])c1ccc2nc(-c3ccccc3)n(OCc3cccc(C(F)(F)F)c3)c2c1 [AG, 6-Nitro-2-phenyl-1-(3-trifluoromethyl-benzyloxy)-1H-benzoimidazole]",**
7,"O=C(O)COn1c(-c2ccccc2)nc2ccc([N+](=O)[O-])cc21 [AH, (6-Nitro-2-phenyl-benzoimidazol-1-yloxy)-acetic acid]",**
8,"O=[N+]([O-])c1ccc2nc(-c3ccccc3)n(OCc3ccccc3)c2c1 [AI, 1-Benzyloxy-6-nitro-2-phenyl-1H-benzoimidazole]",**
9,"Cc1ccc(COn2c(-c3ccccc3)nc3ccc([N+](=O)[O-])cc32)cc1 [AJ, 1-(4-Methyl-benzyloxy)-6-nitro-2-phenyl-1H-benzoimidazole]",*
10,"Cn1c(=O)c2c3oc(-c4ccc([N+](=O)[O-])cc4)nc3c(=O)n(-c3ccccc3)c2n(C)c1=O [AK, 6,8-Dimethyl-2-(4-nitro-phenyl)-5-phenyl-5H,6H-1-oxa-3,5,6,8-tetraaza-cyclopenta[a]naphthalene-4,7,9-trione]",**
11,"Cc1ccc(-c2nc3c(=O)n(-c4ccccc4)c4c(c(=O)n(C)c(=O)n4C)c3o2)cc1 [AL, 6,8-Dimethyl-5-phenyl-2-p-tolyl-5H,6H-1-oxa-3,5,6,8-tetraaza-cyclopenta[a]naphthalene-4,7,9-trione]",*
12,"O=c1/c(=C/c2cn(-c3ccccc3)nc2-c2ccc(F)cc2)sc2nc3ccccc3n12 [AM, 2-[3-(4-Fluoro-phenyl)-1-phenyl-1H-pyrazol-4-ylmethylene]-benzo[4,5]imidazo[2,1-b]thiazol-3-one]",**
13,"C=Cc1nc2s/c(=C\c3cn(-c4ccccc4)nc3-c3ccc(F)cc3)c(=O)n2c1C [AO, 2-[3-(4-Fluoro-phenyl)-1-phenyl-1H-pyrazol-4-ylmethylene]-5-methyl-6-vinyl-imidazo[2,1-b]thiazol-3-one]",**
14,"CN(C)c1ccc(-c2cc(=O)c3ccccc3o2)cc1 [AW, 2-[4-(dimethylamino)phenyl]-4H-chromen-4-one]",**
15,"c1ccc(COn2c(-c3ccccc3)nc3ncccc32)cc1 [AX, 1-(benzyloxy)-2-phenyl-1H-imidazo[4,5-b]pyridine]",**
16,"c1ccc(CSc2ncc(-c3nnnn3-c3ccccc3)c(-c3ccccc3)n2)cc1 [AY, 2-(benzylthio)-4-phenyl-5-(1-phenyl-1H-1,2,3,4-tetraazol-5-yl)pyrimidine]",**
17,"O=c1cc(-c2ccccc2)oc2ccc(F)cc12 [AZ, 6-fluoro-2-phenyl-4H-chromen-4-one]",**
18,"CCOc1ccc(C2Nc3ccccc3-c3nnc(SC)nc3O2)cc1 (centres unmarked) [B, 6-(4-Ethoxy-phenyl)-3-methylsulfanyl-6,7-dihydro-5-oxa-1,2,4,7-tetraaza-dibenzo[a,c]cycloheptene]",*
19,"COc1ccc2c(=O)cc(-c3ccccc3)oc2c1 [BA, 7-methoxy-2-phenyl-4H-chromen-4-one]",*

row,Compound,MarA inhibition score (cell survival)
1,"O=C1C(=C2NC(c3ccccn3)C3C(=O)N(c4ccccc4)C(=O)C23)C(=O)c2ccccc21 (centres unmarked) [BB, 4-(1,3-dioxo-1,3-dihydro-2H-inden-2-yliden)-2-phenyl-6-(2-pyridinyl)tetrahydro pyrrolo[3,4-c]pyrrole-1,3(2H,3aH)-dione]",*
2,"CCOC(=O)C(C(N)=O)C1(O)OC(c2ccc(C)cc2)=CC1=O (centres unmarked) [BC, 2-(2-Hydroxy-3-oxo-5-p-tolyl-2,3-dihydro-furan-2-yl)-malonamic acid ethyl ester]",*
3,"O=C(O)COn1c(-c2ccccc2)nc2ccc([N+](=O)[O-])cc21 [BD, 2-[(6-nitro-2-phenyl-1H-1,3-benzimidazol-1-yl)oxy]acetic acid]",*
4,"O=c1cc(-c2ccc(F)cc2)oc2ccccc12 [BE, 2-(4-fluorophenyl)-4H-chromen-4-one]",*
5,"COn1c(-c2ccc(C)cc2)nc2ncccc21 [BF, 1-methoxy-2-(4-methylphenyl)-1H-imidazo[4,5-b]pyridine]",*
6,"O=c1cc(-c2ccc(O)cc2)oc2ccccc12 [BG, 2-(4-hydroxyphenyl)-4H-chromen-4-one]",*
7,"CSc1nnc2c(n1)OC(c1ccc([N+](=O)[O-])o1)Nc1ccccc1-2 (centres unmarked) [C, 3-Methylsulfanyl-6-(5-nitro-furan-2-yl)-6,7-dihydro-5-oxa-1,2,4,7-tetraaza-dibenzo[a,c]cycloheptene]",*
8,"CSc1nnc2c(n1)OC(c1ccc(-c3ccc([N+](=O)[O-])cc3)o1)Nc1ccccc1-2 (centres unmarked) [D, 3-Methylsulfanyl-6-[5-(4-nitro-phenyl)-furan-2-yl]-6,7-dihydro-5-oxa-1,2,4,7-tetraaza-dibenzo[a,c]cycloheptene]",*
9,"CCSc1nnc2c(n1)OC(c1ccc(O)c(O)c1)Nc1ccccc1-2 (centres unmarked) [E, 4-(3-Ethylsulfanyl-6,7-dihydro-5-oxa-1,2,4,7-tetraaza-dibenzo[a,c]cyclo-hepten-6-yl)-benzene-1,2-diol]",*
10,"CCCSc1nnc2c(n1)OC(c1ccc(OCc3ccccc3)cc1)Nc1ccccc1-2 (centres unmarked) [F, 6-(4-Benzyloxy-phenyl)-3-propylsulfanyl-6,7-dihydro-5-oxa-1,2,4,7-tetraaza-dibenzo[a,c]cycloheptene]",**
11,"CCCCSc1nnc2c(n1)OC(c1ccc(OC)cc1OC)Nc1ccccc1-2 (centres unmarked) [H, 3-Butylsulfanyl-6-(2,4-dimethoxy-phenyl)-6,7-dihydro-5-oxa-1,2,4,7-tetraaza-dibenzo[a,c]cycloheptene]",*
12,"C=CCOc1ccc(C2Nc3ccccc3-c3nnc(SCCCC)nc3O2)cc1 (centres unmarked) [I, 6-(4-Allyloxy-phenyl)-3-butylsulfanyl-6,7-dihydro-5-oxa-1,2,4,7-tetraaza-dibenzo[a,c]cycloheptene]",**
13,"CCCCSc1nnc2c(n1)OC(c1ccc(OCC)cc1)Nc1ccccc1-2 (centres unmarked) [J, 3-Butylsulfanyl-6-(4-ethoxy-phenyl)-6,7-dihydro-5-oxa-1,2,4,7-tetraaza-dibenzo[a,c]cycloheptene]",*
14,"CCCSc1nnc2c(n1)OC(c1ccc(OC)cc1)Nc1ccccc1-2 (centres unmarked) [K, 6-(4-Methoxy-phenyl)-3-propylsulfanyl-6,7-dihydro-5-oxa-1,2,4,7-tetraaza-dibenzo[a,c]cycloheptene]",*
15,"CCCSc1nnc2c(n1)OC(c1ccc(-c3cccc([N+](=O)[O-])c3)o1)Nc1ccccc1-2 (centres unmarked) [L, 6-[5-(3-Nitro-phenyl)-furan-2-yl]-3-propylsulfanyl-6,7-dihydro-5-oxa-1,2,4,7-tetraaza-dibenzo[a,c]cycloheptene]",**
16,"O=c1/c(=C/c2c[nH]nc2-c2ccccc2)sc2nc3ccccc3n12 [M, 2-(3-Phenyl-1H-pyrazol-4-ylmethylene)-benzo[4,5]imidazo[2,1-b]thiazol-3-one]",**
17,"CCOC(=O)C1=C(C)N=c2s/c(=C\c3ccc(-c4cccc(C(=O)O)c4)o3)c(=O)n2C1c1c(OC)ccc2ccccc12 (centres unmarked) [N, 2-[5-(3-Carboxy-phenyl)-furan-2-ylmethylene]-5-(2-methoxy-naphthalen-1-yl)-7-methyl-3-oxo-2,3-dihydro-5H-thiazolo[3,2-a]pyrimidine-6-carboxylic acid ethyl ester]",**
18,"CCOC(=O)C1=C(C)N=c2sc(=Cc3ccc(-c4ccc([N+](=O)[O-])cc4C)o3)c(=O)n2C1c1ccc2c(c1)OCO2 (centres unmarked) [P, 5-Benzo[1,3]dioxol-5-yl-7-methyl-2-[5-(2-methyl-4-nitro-phenyl)-furan-2-ylmethylene]-3-oxo-2,3-dihydro-5H-thiazolo[3,2-a]pyrimidine-6-carboxylic acid ethyl ester]",*
19,"CCOC(=O)C1=C(C)N=c2s/c(=C/c3ccc(-c4cccc(C(F)(F)F)c4)o3)c(=O)n2C1c1ccccc1 (centres unmarked) [U, 7-Methyl-3-oxo-5-phenyl-2-[5-(3-trifluoromethyl-phenyl)-furan-2-ylmethylene]-2,3-dihydro-5H-thiazolo[3,2-a]pyrimidine-6-carboxylic acid ethyl ester]",**
